Measurements reported in ChEMBL document CHEMBL1134021, “Thienopyridines: nitric oxide synthase inhibitors with potent in vivo activity” (Bioorg Med Chem Lett, 2001).

Assays:
DLD-1 = assay: Concentration required to inhibit nitric oxide synthesis in DLD-1 cells; assay type: functional, cell-based; details: Homo sapiens
Rattus norvegicus [1] = assay: Dose required for half maximal increase in mean arterial blood pressure of 40 mmHg after 15 min in anaesthetised rats, as a measure of eNOS activity; assay type: functional
Rattus norvegicus [2] = assay: In vivo inhibition of iNOS is determined from the inhibition of LPS-induced nitrite production measured in rat blood plasma at 800 umol/kg for 15 min; assay type: functional; details: 0.25 h
Rattus norvegicus [3] = assay: In vivo inhibition of iNOS is determined from the inhibition of LPS-induced nitrite production measured in rat blood plasma at 3.2 umol/kg for 15 min; assay type: functional; details: 0.25 h
[4] = molecular target: Nitric oxide synthase, inducible (Homo sapiens, UniProt P35228); assay: Ability to inhibit the conversion of [3H]L-Arg to [3H]L-citrulline catalyzed by i-NOS from human DLD-1 cells; assay type: functional, cell-based
Chain of Nitric oxide synthase, inducible (P35228 whole entry): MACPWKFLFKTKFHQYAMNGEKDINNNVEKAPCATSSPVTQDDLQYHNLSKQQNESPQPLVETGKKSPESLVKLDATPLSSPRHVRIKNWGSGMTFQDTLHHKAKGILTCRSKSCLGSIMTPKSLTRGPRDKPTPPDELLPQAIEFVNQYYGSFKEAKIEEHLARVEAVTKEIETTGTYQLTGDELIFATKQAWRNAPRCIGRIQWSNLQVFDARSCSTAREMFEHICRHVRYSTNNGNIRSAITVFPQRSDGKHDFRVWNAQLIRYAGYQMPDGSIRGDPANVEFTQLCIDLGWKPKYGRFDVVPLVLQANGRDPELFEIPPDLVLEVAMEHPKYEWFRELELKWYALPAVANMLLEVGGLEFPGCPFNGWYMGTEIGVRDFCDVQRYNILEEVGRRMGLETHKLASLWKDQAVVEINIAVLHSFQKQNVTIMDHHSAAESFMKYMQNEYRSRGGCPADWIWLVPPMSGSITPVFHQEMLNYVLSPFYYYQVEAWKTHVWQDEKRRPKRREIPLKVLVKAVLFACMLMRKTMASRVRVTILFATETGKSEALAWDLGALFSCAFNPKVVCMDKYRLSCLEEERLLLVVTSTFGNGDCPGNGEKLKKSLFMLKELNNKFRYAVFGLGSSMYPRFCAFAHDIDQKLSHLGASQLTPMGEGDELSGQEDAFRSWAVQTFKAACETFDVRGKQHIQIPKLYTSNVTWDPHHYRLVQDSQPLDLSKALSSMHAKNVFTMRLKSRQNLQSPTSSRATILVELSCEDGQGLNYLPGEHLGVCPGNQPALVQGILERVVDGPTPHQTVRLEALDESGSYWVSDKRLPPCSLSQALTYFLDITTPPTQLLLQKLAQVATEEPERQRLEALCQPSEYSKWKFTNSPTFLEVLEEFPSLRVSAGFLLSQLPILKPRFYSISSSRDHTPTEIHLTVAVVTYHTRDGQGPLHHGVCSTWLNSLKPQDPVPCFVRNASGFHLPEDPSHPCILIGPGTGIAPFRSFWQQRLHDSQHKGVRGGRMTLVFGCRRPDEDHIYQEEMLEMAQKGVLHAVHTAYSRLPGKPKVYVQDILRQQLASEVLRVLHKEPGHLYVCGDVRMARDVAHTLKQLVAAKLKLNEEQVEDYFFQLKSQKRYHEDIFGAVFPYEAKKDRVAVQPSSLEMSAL

Nitric oxide synthase 1 = Nitric oxide synthase 1 (Rattus norvegicus, UniProt P29476); assay: Ability to inhibit the conversion of [3H]-L-Arg to [3H]L-citrulline catalyzed by n-NOS from rat cerebellum; assay type: functional, tissue-based
Chain of Nitric oxide synthase 1 (P29476 whole entry): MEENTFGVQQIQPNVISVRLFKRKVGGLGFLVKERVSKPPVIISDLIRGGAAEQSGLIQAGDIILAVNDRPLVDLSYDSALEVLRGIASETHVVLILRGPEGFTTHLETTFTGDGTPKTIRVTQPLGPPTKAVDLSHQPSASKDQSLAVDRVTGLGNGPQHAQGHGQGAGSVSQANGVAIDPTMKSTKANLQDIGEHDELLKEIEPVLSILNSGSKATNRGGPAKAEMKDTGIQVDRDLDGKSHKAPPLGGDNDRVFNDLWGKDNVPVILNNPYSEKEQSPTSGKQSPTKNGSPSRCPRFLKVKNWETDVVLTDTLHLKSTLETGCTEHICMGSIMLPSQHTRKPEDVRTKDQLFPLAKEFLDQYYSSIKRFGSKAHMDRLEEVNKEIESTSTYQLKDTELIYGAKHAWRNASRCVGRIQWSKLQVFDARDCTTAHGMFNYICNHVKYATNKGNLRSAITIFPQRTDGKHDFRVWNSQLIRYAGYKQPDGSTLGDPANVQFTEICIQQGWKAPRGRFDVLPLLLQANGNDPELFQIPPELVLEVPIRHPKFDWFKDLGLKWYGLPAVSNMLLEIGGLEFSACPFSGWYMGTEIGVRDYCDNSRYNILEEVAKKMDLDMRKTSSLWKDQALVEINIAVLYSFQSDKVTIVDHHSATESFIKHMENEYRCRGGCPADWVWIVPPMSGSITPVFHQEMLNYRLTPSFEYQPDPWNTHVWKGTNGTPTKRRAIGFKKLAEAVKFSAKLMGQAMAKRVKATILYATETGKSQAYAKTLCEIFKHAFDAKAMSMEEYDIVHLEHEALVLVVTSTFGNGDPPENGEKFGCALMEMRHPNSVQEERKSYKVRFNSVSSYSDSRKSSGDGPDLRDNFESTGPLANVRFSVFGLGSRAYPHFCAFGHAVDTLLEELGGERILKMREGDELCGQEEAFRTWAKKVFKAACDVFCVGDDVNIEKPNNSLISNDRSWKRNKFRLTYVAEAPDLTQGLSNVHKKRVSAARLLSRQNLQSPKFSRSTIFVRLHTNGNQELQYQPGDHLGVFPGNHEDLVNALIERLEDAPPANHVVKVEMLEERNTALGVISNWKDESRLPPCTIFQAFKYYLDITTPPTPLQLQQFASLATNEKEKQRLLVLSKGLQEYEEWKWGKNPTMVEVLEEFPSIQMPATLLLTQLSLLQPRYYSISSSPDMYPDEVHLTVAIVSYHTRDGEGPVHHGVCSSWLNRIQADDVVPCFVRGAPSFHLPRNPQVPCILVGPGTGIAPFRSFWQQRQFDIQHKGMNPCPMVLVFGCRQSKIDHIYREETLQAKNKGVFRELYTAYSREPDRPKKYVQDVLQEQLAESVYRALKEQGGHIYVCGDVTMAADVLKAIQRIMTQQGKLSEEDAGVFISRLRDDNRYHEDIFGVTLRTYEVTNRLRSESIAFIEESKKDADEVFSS

Nitric oxide synthase 3 = molecular target: T1, Nitric oxide synthase 3 (Homo sapiens, UniProt P29474); assay: Ability to inhibit the conversion of [3H]L-Arg to [3H]L-citrulline catalyzed by e-NOS from HUVEC cells; assay type: functional, cell-based
T1 sequence (P29474 whole entry): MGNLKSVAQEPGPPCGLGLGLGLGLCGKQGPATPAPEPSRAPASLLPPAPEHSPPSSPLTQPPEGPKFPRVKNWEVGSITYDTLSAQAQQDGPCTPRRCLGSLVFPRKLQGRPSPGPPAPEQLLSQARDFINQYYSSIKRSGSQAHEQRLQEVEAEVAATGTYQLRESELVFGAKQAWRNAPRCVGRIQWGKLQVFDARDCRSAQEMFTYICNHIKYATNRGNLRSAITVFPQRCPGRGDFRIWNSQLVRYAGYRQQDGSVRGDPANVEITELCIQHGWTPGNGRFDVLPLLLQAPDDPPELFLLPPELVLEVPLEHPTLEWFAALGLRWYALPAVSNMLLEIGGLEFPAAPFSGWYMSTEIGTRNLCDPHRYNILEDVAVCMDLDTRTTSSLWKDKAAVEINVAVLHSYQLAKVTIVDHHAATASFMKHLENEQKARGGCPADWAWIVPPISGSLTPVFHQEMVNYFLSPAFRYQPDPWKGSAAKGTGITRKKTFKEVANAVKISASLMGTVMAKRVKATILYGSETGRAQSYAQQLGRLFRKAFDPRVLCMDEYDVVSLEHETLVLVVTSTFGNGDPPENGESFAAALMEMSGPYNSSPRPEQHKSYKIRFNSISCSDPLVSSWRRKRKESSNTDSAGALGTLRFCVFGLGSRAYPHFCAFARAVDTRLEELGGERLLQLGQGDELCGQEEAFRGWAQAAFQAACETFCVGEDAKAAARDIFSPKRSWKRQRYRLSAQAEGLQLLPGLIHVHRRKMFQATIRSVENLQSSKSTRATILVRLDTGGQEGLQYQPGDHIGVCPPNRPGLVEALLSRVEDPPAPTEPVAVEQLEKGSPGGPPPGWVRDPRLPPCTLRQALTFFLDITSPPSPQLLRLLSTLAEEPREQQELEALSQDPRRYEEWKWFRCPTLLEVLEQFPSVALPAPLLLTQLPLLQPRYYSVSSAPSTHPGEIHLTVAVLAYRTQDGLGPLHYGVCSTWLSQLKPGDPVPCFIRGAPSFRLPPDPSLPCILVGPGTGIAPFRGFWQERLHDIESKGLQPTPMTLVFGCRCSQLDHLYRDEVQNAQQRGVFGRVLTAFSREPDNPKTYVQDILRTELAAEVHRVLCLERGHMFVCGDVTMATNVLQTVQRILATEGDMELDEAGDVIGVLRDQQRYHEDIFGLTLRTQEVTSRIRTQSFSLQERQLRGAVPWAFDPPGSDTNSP

HUVEC = assay: Ability to inhibit the conversion of [3H]L-Arg to [3H]L-citrulline catalyzed by e-NOS from HUVEC cells at 100 uM concentration; assay type: functional; details: Homo sapiens

Compound	IC50 [4]	IC50 (Nitric oxide synthase 1)	IC50 (Nitric oxide synthase 3)	IC50 (DLD-1)	Dose (Rattus norvegicus [1])	ED50 (Rattus norvegicus [2])	ED50 (Rattus norvegicus [3])	inhibition at 100 µM (HUVEC)
CNC(=N)NCCCC(N)C(=O)O (single isomer, unassigned) [TILARGININE]	–	–	–	170000 nM	100 µM/kg	100 µmol/kg	–	–
C#CC1Cc2ccsc2C(N)=N1 (stereo not given)	40 nM	6 nM	80 nM	5800 nM	–	–	–	–
NC1=NC(c2ccccc2)Cc2sccc21 (stereo not given)	2700 nM	740 nM	9500 nM	–	–	–	–	–
C#CC1Cc2cc(C)sc2C(N)=N1 (stereo not given)	3500 nM	910 nM	10000 nM	–	–	–	–	–
C#CC1Cc2sccc2C(N)=N1 (stereo not given)	110 nM	25 nM	120 nM	15000 nM	–	–	–	–
NC1=NC(c2cccs2)Cc2ccsc21 (stereo not given)	150 nM	50 nM	1900 nM	9200 nM	–	–	–	–
NC1=NC(C#Cc2ccccc2)Cc2ccsc21 (stereo not given)	28000 nM	4100 nM	–	–	–	–	–	< 25%
NC1=NC(c2cccnc2)Cc2ccsc21 (stereo not given)	2800 nM	260 nM	–	–	–	–	–	–
NC1=NC(C2CC2)Cc2ccsc21 (stereo not given)	51 nM	11 nM	50 nM	3600 nM	–	–	–	–
NC1=NC(C2CC2)Cc2sccc21 (stereo not given)	190 nM	18 nM	750 nM	8700 nM	–	–	–	–

More lines, main results first:

IC50 [4]	IC50 (Nitric oxide synthase 1)	IC50 (Nitric oxide synthase 3)	Compound	IC50 (DLD-1)	Dose (Rattus norvegicus [1])	ED50 (Rattus norvegicus [2])	ED50 (Rattus norvegicus [3])	inhibition at 100 µM (HUVEC)
89 nM	40 nM	920 nM	NC1=NC(c2ccco2)Cc2ccsc21 (stereo not given)	2200 nM	0.4 µM/kg	–	0.4 µmol/kg	–
3600 nM	10000 nM	–	CC(C)(C)C#CC1Cc2ccsc2C(N)=N1 (stereo not given)	–	–	–	–	< 25%
730 nM	550 nM	280 nM	NC1=NCCc2ccsc21	–	–	–	–	–
8300 nM	140 nM	4000 nM	NC1=NC(c2ccccc2)Cc2ccsc21 (stereo not given)	–	–	–	–	–
150 nM	80 nM	5000 nM	CC#CC1Cc2ccsc2C(N)=N1 (stereo not given)	34000 nM	–	–	–	–
1600 nM	100 nM	–	NC1=NCCc2sccc21	–	–	–	–	–
